The target of data set [1] is T1, 31-O-desmethylimmunomycin O-methyltransferase (DIMT) (Streptomyces hygroscopicus, UniProt Q9KID5).
T1 construct: about 32 kDa; monomer by gel filtration
T1 sequence (Q9KID5 1-260): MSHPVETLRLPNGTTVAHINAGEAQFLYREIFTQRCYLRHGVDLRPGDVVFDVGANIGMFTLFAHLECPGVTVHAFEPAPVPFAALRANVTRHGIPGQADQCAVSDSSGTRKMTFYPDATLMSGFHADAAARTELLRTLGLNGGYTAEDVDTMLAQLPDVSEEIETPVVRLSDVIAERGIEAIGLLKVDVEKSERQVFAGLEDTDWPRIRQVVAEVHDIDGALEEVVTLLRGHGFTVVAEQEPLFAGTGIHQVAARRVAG
Description: S-adenosyl-L-methionine:31-O-desmethylimmunomycin O-methyltransferase (DIMT) assay. The class given is biochemical, Streptomyces hygroscopicus var. ascomyceticus. The note with it: for inhibition of DIMT activity: result in words. As for the experimental part:
The assay was carried out in 1 ml. mixture containing 0.025 mM 31-desmethylimmunomycin, 1 mM MgSO4 and different quantities of the enzyme source in 50 mM phosphate buffer, pH 7.5. Reaction was initiated by the addition of 1 nmole of ^14 C-SAM (S-adenosyl-L-[methyl-^14 C] methionine with the specific activity of 46 mCi/mmole. Incubation of the complete mixture was carried out at 34° C. for 20 minutes and the reaction was terminated by the addition of ethyl acetate. Product of the reaction was extracted with 2 ml of ethyl acetate and 1 ml of the extract was used for TLC and HPLC analysis. For the analysis of the radioactive reaction product (immunomycin), the ethyl acetate extract was spiked with the standard immunomycin and subjected to the TLC with a plate having plastic support. The plastic sheet was developed in chloroform:methanol (9:1) and area showing standard immunomycin under UV-light was cut and the radioactivity in the cut-strip was measured. The amount of the product formed was calculated from the measured radioactivity. For the HPLC analysis of the product of the enzyme reaction, several enzymatic reaction mixtures were pooled and the extract was subjected to the TLC analysis as above. The area on the silica gel plate showing the band having an Rf value identical with the standard immunomycin was scraped and eluted with ethyl acetate. The ethyl acetate extract was washed with water, dried under nitrogen and the residue was subjected to the HPLC analysis on Partisil 5-ODS-3 column with acetonitrile:water:phosphoric acid (65:35:0.1) as the eluting solvent. One milliliter fractions were collected and a portion of each fraction was examined for the radioactivity.
Examination of the optimal temperature, pH and metal requirement of the DIMT activity was carried out on the enzyme preparation obtained from DEAE-Sepharose column. For kinetic analysis, a preparation which had been purified through a second MonoQ column chromatography was utilized.

The subject of data set [2] is mouse T lymphocytes stimulated with ionomycin plus PMA. Description: T-cell proliferation assay (ionomycin plus PMA induced T-cell stimulation). The class given is cell-based. As for the experimental part:
The principle of this assay, as described in J. Immunology, Vol. 144, pp. 251-258 (1990) by F. Dumont et al, is to measure the proliferation of mouse T lymphocytes stimulated with the combination of ionomycin plus PMA. A positive sample e.g. FK-506, in this assay will inhibit T-cell proliferation, as indicated by reduced tritiated thymidine uptake.
Purified Compound I, as prepared by HPLC above, was dissolved in absolute ethanol at 1 mg/ml.
Spleens from C57B1/6 mice were taken under sterile conditions and gently dissociated in ice-cold RPMI 1640 culture medium (GIBCO, Grand Island, N.Y.) supplemented with 10% heat-inactivated fetal calf serum (GIBCO). Cells were pelleted by centrifugation at 1500 rpm for 8 minutes. Contaminating red cells were removed by treating the pellet with ammonium chloride lysing buffer (GIBCO) for 2 minutes at 4° C. Cold medium was added and cells were again centrifuged at 1500 rpm for 8 minutes. T lymphocytes were then isolated by separation of the cell suspension on nylon wool columns as follows: Nylon wool columns were prepared by packing approximately 4 grams of washed and dried nylon wool into 20 ml plastic syringes. The columns were sterilized by autoclaving at 250° F. for 30 minutes. Nylon wool columns were wetted with warm (37° C.) culture medium and rinsed with the same medium. Washed spleen cells resuspended in warm medium were slowly applied to the nylon wool. The columns were then incubated in an upright position at 37° C. for 1 hour. Non-adherent T lymphocytes were eluted from the columns with warm culture medium and the cell suspensions were spun as above.
Purified T lymphocytes were resuspended at 2.5×10^5 cells/ml in complete culture medium composed of RPMI 1640 medium with 10% heat-inactivated fetal calf serum, […], 1 mM sodium pyruvate, 2×10^-5 M 2-mercaptoethanol and 50 μg/ml gentamycin. Ionomycin was added at 250 ng/ml and PMA at 10 ng/ml. The cell suspension was immediately distributed into 96 well flat-bottom microculture plates (Costar) at 200 μl/well. The control, being the medium without test drug, and various below-indicated dilutions of the sample (above-describedpurified Compound I) to be tested were then added in triplicate wells at 20 μl/well. FR-900506 was used as a standard. The culture plates were then incubated at 37° C. in a humidified atmosphere of 5% CO2 -95% air for 44 hours. The proliferation of T lymphocytes was assessed by measurement of tritiated thymidine incorporation. After 44 hours of culturing, the cells were pulse-labelled with 2 μCi/well of tritiated thymidine (NEN, Cambridge, Mass.). After another 4 hours of incubation, cultures were harvested on glass fiber filters using a multiple sample harvester. Radioactivity of filter discs corresponding to individual wells was measured by standard liquid scintillation counting methods (Betacounter). Mean counts per minute of replicate wells were calculated and the results expressed as percent inhibition of tritiated thymidine uptake (proliferation) as follows: [formula]
1. Mouse T cell cultures were pulsed with ^3 H-thymidine for 4 hours prior to harvesting at 48 hours.

Data set [3] can be described thus: Physical characteristics of Compound I. Particulars: methanol. The class given is physicochemical.
The conditions of data set [4]: reputed, EPO Publication No. 0184162; cited from earlier work.
Setting [5] is: Mus musculus, T-lymphocyte, Example 3, HPLC purified samples, same set of experiments, read-out: IC50, biological activity.

Where “and” joins values, the source holds several entries; their conditions need not be identical. Equal values may be shown once. Entries after “also recorded” stand apart in the source; their conditions may differ. Read-outs that look alike come from different tables or passages of the source.

For `CC[C@@H]1/C=C(\C)C[C@H](C)C[C@H](OC)[C@H]2O[C@@](O)(C(=O)C(=O)N3CCCC[C@H]3C(=O)O[C@H](/C(C)=C/[C@@H]3CC[C@@H](O)[C@H](O)C3)[C@H](C)[C@@H](O)CC1=O)[C@H](C)C[C@@H]2OC` [31-O-desmethylimmunomycin], the “apparent Vmax of DIMT” value in data set [1] (31-O-desmethylimmunomycin variable substrate, 40 uM SAM, Lineweaver-Burk) came to 45.5 nmol/h/mg.
The IC50 is the concentration that gives 50% inhibition. Take `CC[C@@H]1C=C2COC1(O)C[C@H](O)[C@@H](C)[C@@H](/C(C)=C/[C@@H]1CC[C@@H](O)[C@H](OC)C1)OC(=O)[C@@H]1CCCCN1C(=O)C(=O)[C@]1(O)O[C@H]([C@@H](OC)C[C@@H](C)C2)[C@@H](OC)C[C@H]1C` [Compound II]: the IC50 in data set [2] (setting [5]) is around 6 nM. Besides, the “activity in the T-cell proliferation assay” value in data set [2] (result in words) was “positive inhibition of T-cell activation; also recorded: positive results”.
Consider `CC[C@@H]1C=C2COC1(O)C[C@H](O)[C@@H](C)[C@@H](/C(C)=C/[C@@H]1CC[C@@H](O)[C@H](O)C1)OC(=O)[C@@H]1CCCCN1C(=O)C(=O)[C@]1(O)O[C@H]([C@@H](OC)C[C@@H](C)C2)[C@@H](OC)C[C@H]1C` [Compound I], for which the “effect of IL-2 on the inhibition of T-cell proliferation” value in data set [2] (50 units/ml recombinant IL-2 added at the initiation of culture) was “reversed”. Further, the inhibition at 0.0025 µM in data set [2] (Mus musculus, T-lymphocyte, 2.5 nM, splenic T-cells, ionomycin + PMA, 48 hours, read-out: Percent of Inhibition of tritiated thymidine uptake (proliferation)) is 0%. Besides, the inhibition at 0.0049 µM in data set [2] (Mus musculus, T-lymphocyte, 4.9 nM, splenic T-cells, ionomycin + PMA, 48 hours, read-out: Percent of Inhibition of tritiated thymidine uptake (proliferation)) is 0%. Also, the inhibition at 0.0099 µM in data set [2] (Mus musculus, T-lymphocyte, 9.9 nM, splenic T-cells, ionomycin + PMA, 48 hours, read-out: Percent of Inhibition of tritiated thymidine uptake (proliferation)) was determined as 39%. Further, the inhibition at 0.0197 µM in data set [2] (Mus musculus, T-lymphocyte, 19.7 nM, splenic T-cells, ionomycin + PMA, 48 hours, read-out: Percent of Inhibition of tritiated thymidine uptake (proliferation)) came out at 65%. Besides, the inhibition at 0.0394 µM in data set [2] (Mus musculus, T-lymphocyte, 39.4 nM, splenic T-cells, ionomycin + PMA, 48 hours, read-out: Percent of Inhibition of tritiated thymidine uptake (proliferation)) amounted to 89%. Further, the inhibition at 0.0788 µM in data set [2] (Mus musculus, T-lymphocyte, 78.8 nM, splenic T-cells, ionomycin + PMA, 48 hours, read-out: Percent of Inhibition of tritiated thymidine uptake (proliferation)) came to 95%. In addition, in data set [2] (Mus musculus, T-lymphocyte, 157.6 nM, splenic T-cells, ionomycin + PMA, 48 hours, read-out: Percent of Inhibition of tritiated thymidine uptake (proliferation)), the inhibition at 0.1576 µM stood at 98%. The inhibition at 0.3152 µM in data set [2] (Mus musculus, T-lymphocyte, 315.2 nM, splenic T-cells, ionomycin + PMA, 48 hours, read-out: Percent of Inhibition of tritiated thymidine uptake (proliferation)) was 98%. Also, the IC50 in data set [2] (setting [5]) was around 11 nM; in data set [2] (Mus musculus, T-lymphocyte, Example 4, table notes, read-out: IC50) it was 0.0115 µg/mL and 14.5 nM; in data set [2] (Mus musculus, T-lymphocyte, generally in the range, read-out: IC50, general range), 10 to 18 nM. In addition, the Solubility result in data set [3] is “Solubility in methanol”.
As for `O=C(O)CN(CCN(CC(=O)O)CC(=O)O)CC(=O)O` [EDTA], the “inhibition of DIMT activity” value in data set [1] is reported as “completely inhibited; also recorded: major inhibition”.
On to `C=CC[C@@H]1/C=C(\C)C[C@H](C)C[C@H](OC)[C@H]2O[C@@](O)(C(=O)C(=O)N3CCCC[C@H]3C(=O)O[C@H](/C(C)=C/[C@@H]3CC[C@@H](O)[C@H](OC)C3)[C@H](C)[C@@H](O)CC1=O)[C@H](C)C[C@@H]2OC` [FR-900506, reference compound], for which, in data set [2] (Mus musculus, T-lymphocyte, read-out: inhibition of T-cell proliferation by the standard), the inhibition at 0.01 µg/mL worked out at 99%. Moreover, the “times more effective than cyclosporin” value in data set [4] is reported as 100 times.
Consider `CC[C@@H]1/C=C(\C)C[C@H](C)C[C@H](OC)[C@H]2O[C@@](O)(C(=O)C(=O)N3CCCC[C@H]3C(=O)O[C@H](/C(C)=C/[C@@H]3CC[C@@H](O)[C@H](OC)C3)[C@H](C)[C@@H](O)CC1=O)[C@H](C)C[C@@H]2OC` [FR-900520, 17-Ethyl-1,14-dihydroxy-12-[2-(4-hydroxy-3-methoxycyclohexyl)-1-methylvinyl]-23-25-dimethoxy-13,19,21,27-tetramethyl-11,28-dioxa-4-azatricyclo [22.3.1.0^4,9]octacos-18-ene-2,3,10,16-tetraone], for which, in data set [2] (setting [5]), the half-inhibitory concentration (IC50) was around 1 nM.
On to `Nc1ncnc2c1ncn2[C@@H]1O[C@H](CSCC[C@H](N)C(=O)O)[C@@H](O)[C@H]1O` [S-adenosyl-homocysteine (SAH), S-adenosyl-homocysteine], for which, in data set [1], the “inhibition of DIMT activity” value was “major inhibition”.
For `N.N.O=S(=O)(O)O` [ammonium sulfate], the “inhibition of DIMT activity” value in data set [1] is on record as “inhibited”.
In the case of `Nc1ncnc2c1ncn2[C@@H]1O[C@H](C[C@@H](N)CC[C@H](N)C(=O)O)[C@@H](O)[C@H]1O` [sinefungin], the “inhibition of DIMT activity” value in data set [1] is given as “major inhibition”.
